In PMC5994430, “Mitochondrial Delivery of Phenol Substructure Triggers Mitochondrial Depolarization and Apoptosis of Cancer Cells” (Frontiers in Pharmacology, 2018):

Key:
Assay type in all cases: cell-based, Human
PGC-1α [1] = assay: Immunoblot of nuclear PGC-1α in A549 cells; conditions: 0.1 μM, 4 h
PGC-1α [2] = assay: Immunoblot of nuclear PGC-1α in BEAS-2B cells; conditions: 0.1 μM, 4 h
A549 cells [3] = assay: Mitochondrial mass (MitoTracker Green staining); conditions: 0.1 μM, 4 h
Experimental: The amount of proteins in mitochondrial extracts, normalized to the total amount of cellular proteins, was considered an index of mitochondrial mass ([Jean et al., 2015]). Mitochondria biogenesis was evaluated by measuring the expressions of subunit I of COX-I, which is encoded by mitochondrial DNA, and of the SDH-A of complex II, which is encoded by nuclear DNA, using the MitoBiogenesis^TM In-Cell ELISA Kit (Abcam), following the manufacturer’s instructions. The unit (U) of each protein/mg mitochondrial proteins were calculated. Results were expressed as COX-1/SDH-A ratio.
0.5 × 10^5 cells were grown on sterile glass coverslips. […] The samples were analyzed with an Olympus FV300 laser scanning confocal microscope equipped with a Blue Argon (488 nm) laser, a Green Helium Neon (543 nm) laser, and FluoView 300 software (Olympus Biosystems, Hamburg, Germany). […]
(§1) [t] […] (E,F) The electron transport was measured spectrophotometrically in duplicates. ATP levels in mitochondrial extracts was measured by a chemiluminescence-based assay, in duplicates. […] (G,H) ROS amount in mitochondrial extracts and mitochondrial damage were measured fluorimetrically, in duplicates. […] There were no statistically significant differences between untreated (ctrl) and compound 1/compound 2-treated BEAS-2B cells for all the parameters analyzed in this figure.

[4] = test system: electron transport between complexes I and III; assay: Electron transport chain in mitochondrial extracts of A549 cells; conditions: 0.1 μM, 4 h
Experimental: The electron transport between complexes I and III was measured in mitochondrial extracts, immediately after extract thawing, as detailed earlier ([Jean et al., 2015]). In particular, 10 μl of not-sonicated mitochondrial samples were re-suspended in 0.59 ml buffer C (5 mM KH2PO4, 5 mM MgCl2, 5% w/v BSA) and transferred into a quartz spectrophotometer cuvette. Then 0.38 ml buffer D (25% w/v saponin, 50 mM KH2PO4, 5 mM MgCl2, 5% w/v BSA, 0.12 mM cytochrome c-oxidized form, 0.2 mM NaN3) was added for 5 min at room temperature. The reaction was started with 0.15 mM NADH and was followed for 5 min, reading the absorbance at 550 nm by a Lambda 3 spectrophotometer (PerkinElmer, Waltham, MA, United States). The results were expressed as nmoles reduced cytochrome c/min/mg mitochondrial proteins. […]
as §1

mitochondrial ATP = assay: Mitochondrial ATP in A549 cells; conditions: 0.1 μM, 4 h
Experimental: The amount of ATP was measured on 20 μg of mitochondrial extracts with the ATP Bioluminescent Assay Kit (FL-AA, Sigma Chemical Co.). Data were converted into nmoles/mg mitochondrial proteins, using a calibration curve previously set.
[t] Continuedof three experiments with similar results. (D) Confocal analysis of mitochondrial staining with MitoTracker® Green FM. Magnification: 60 × objective (0.52 numerical aperture); 10 × ocular lens. Bar: 10 μM. The micrographs are representative of three experiments with similar results. (E,F) The electron transport was measured spectrophotometrically in duplicates. ATP levels in mitochondrial extracts was measured by a chemiluminescence-based assay, in duplicates. Data are means ± SD (n = 3). For both panels: ^∗p < 0.001 vs. A549 ctrl cells; °p < 0.001 for BEAS-2B cells vs. the corresponding condition in A549 cells. (G,H) ROS amount in mitochondrial extracts and mitochondrial damage were measured fluorimetrically, in duplicates. Data are means ± SD (n = 3). For both panels: ^∗p < 0.001 vs. A549 ctrl cells; °p < 0.001 for BEAS-2B cells vs. the corresponding condition in A549 cells. There were no statistically significant differences between untreated (ctrl) and compound 1/compound 2-treated BEAS-2B cells for all the parameters analyzed in this figure.

A549 cells [5] = assay: Bright field morphological analysis; conditions: 0.1 μM, 24 h, compared with untreated cells
Excerpt: (§2) Human colon cancer HT29 cells, colon-derived normal fibroblast CCD-18Co cells, lung cancer A549 cells, normal human bronchial epithelial (immortalized with adenovirus 12-SV40 virus hybrid Ad12SV40) BEAS-2B cells, breast cancer MDA-MB-231 cells, normal breast epithelial MCF10A cells, human osteosarcoma U-2OS cells were purchased from ATCC (Manassas, VA, United States). Primary osteoblasts were generated as reported previously ([Buondonno et al., 2016]). HMM and HMC were primary cells stabilized in culture as described ([Aldieri et al., 2004]). The use of primary cells was approved by Ethical Committee of the San Luigi Gonzaga Hospital, Orbassano, (protocol #126/2016). All subjects gave written informed consent in accordance with the Declaration of Helsinki. Cells were maintained in medium supplemented with 10% v/v fetal bovine serum, 1% v/v penicillin-streptomycin, 1% v/v L-glutamine. Morphological analysis was performed with a bright field microscope (Leica Microsystems, Wetzlar, Germany). At least 5 fields/experimental condition were examined.
(§3) FIGURE 7 Effects of phenol TPP-derivatives on mitochondria-dependent apoptosis. A549 and BEAS-2B cells were incubated 24 h in fresh medium (ctrl) or in medium containing 0.1 μM of 1 or 2. (A,B) The activity of caspase 9 and 3 was measured fluorimetrically, in duplicates. Data are means ± SD (n = 3). For both panels: ^∗p < 0.001 vs. A549 ctrl cells; °p < 0.001 for BEAS-2B cells vs. the corresponding condition in A549 cells. (C,D) Cell cycle distribution, measured in duplicates. Data are means ± SD (n = 3). For both panels: ^∗p < 0.001 vs. A549 ctrl cells: °p < 0.001 for BEAS-2B cells vs. the corresponding condition in A549 cells. (E) Bright field microscope analysis of cells. Magnification: 60 × objective (0.52 numerical aperture); 10 × ocular lens. Bar: 20 μM. The micrographs are representative of three experiments with similar results.

BEAS-2B cells = assay: Bright field morphological analysis; conditions: 0.1 μM, 24 h
Excerpt: as §2, §3

SMILES	nuclear level of PGC-1α (PGC-1α [1])	nuclear level of PGC-1α (PGC-1α [2])	mitochondrial mass (A549 cells [3])	rate of electron transport [4]	amount of mitochondrial ATP (mitochondrial ATP)	cell morphology (A549 cells [5])	cell morphology (BEAS-2B cells)
CC(=O)Oc1ccc(C[P+](c2ccccc2)(c2ccccc2)c2ccccc2)cc1.[Br-] [Compound 1]	reduced	unaffected	reduced the mitochondrial mass	significant decrease	significant decrease	reduced cell number and a clear round-shaped morphology	decreased cell density without appreciable morphological signs of apoptosis
O=C(Oc1ccc(C[P+](c2ccccc2)(c2ccccc2)c2ccccc2)cc1C(F)(F)F)c1ccccc1.[Br-] [Compound 2]	reduced	unaffected	reduced the mitochondrial mass	significant decrease	significant decrease	reduced cell number and a clear round-shaped morphology	decreased cell density without appreciable morphological signs of apoptosis
